Experimental data: patent publication US20240226066A1, “CARDIOPROTECTION BY AUTOPHAGY INDUCTION AND METABOLIC REPROGRAMMING” (UNIVERSITE PARIS-SACLAY, priority 2021, published 2024)

How the values were obtained:
Type in all cases: cell-based, rat
BAX = experiment: Western blot of BAX expression in RNVCs; conditions: 6 h treatment
Method: (§1) Levels of protein expression of BCL-2 (FIG. 3A and FIG. 3B) BXL-XL (FIG. 3C) and BAX (FIG. 3C), in the RNVCs after 6 h of treatment (FIG. 3A, FIG. 3C, FIG. 3D) or 24 h (FIG. 3B). Co., untreated cell control. Each experiment was reproduced at least three times. Representative western blotting images and quantification of three independent experiments are presented as mean±SEM with single-factor ANOVA, with multiple Sidak comparisons. *, p<0.05 with respect to DMSO.
(§2) The H9C2 cells and RNVCs were detached in LB containing: 50 mM Tris, 150 mM NaCl, 1 mM EDTA, 0.5% deoxycholate, 1% Triton X 100, 0.1% SDS (pH 8.0). The cells were collected and placed on ice for 30 minutes. The cells were then centrifuged at 2000 g for 20 minutes at for 4° C. The supernatant was transferred to a new tube and stored on ice. The protein concentration was determined by BCA assay. The protein samples were diluted with sample buffer (2× Laemmli, Sigma), mixed, and heated for 5 minutes at 95° C. […] The images were recorded with a gel imaging system (Bio Rad). […]

H9C2 cells [1] = experiment: Mitochondrial morphology and abundance by transmission electron microscopy; conditions: compared to DMSO; for mitochondrial number, size and morphology by transmission electron microscopy: 1 μM
Method: The cells were treated with a vehicle (0.01% DMSO), 1 μM digoxin, 1 μM SG6163F, 10 μM SG6163F, fixed with glutaraldehyde and analyzed by transmission electron microscopy. The cells treated with digoxin and with 10 μM SG6163F have many shorter round mitochondria compared with the control which has long thin mitochondria (FIG. 7B, FIG. 7D versus FIG. 7A).
Transmission electron microscopy. For ultrastructural analysis, the cells were fixed in 1.6% glutaraldehyde in a 0.1 M phosphate buffer, rinsed in a 0.1 M cacodylate buffer, and post-fixed for 1 h in 1% osmium tetroxide and 1% potassium ferrocyanide in a 0.1 M cacodylate buffer to improve the coloration of the membranes. The cells were rinsed in distilled water, dehydrated in alcohols and finally embedded in epoxy resin. Contrasting ultrafine sections (70 nm) were analyzed under a JEOL 1400 transmission electron microscope with a Morada Olympus CCD camera.
Due to the importance of mitochondria and reactive oxygen species (ROS) levels in the fate of cardiomyocyte cells, the hypothesis that the compounds could impact the mitochondrial network was explored. Following treatment of the RNVCs with the compounds tested, the mitochondrial network was stained with 200 nM of Mitotracker and the cell volume with 4 μM of calcein-AM. Thus, the mitochondrial network and the individual mitochondria were then analyzed using the IMARIS software.

H9C2 cells [2] = experiment: Seahorse XF Cell Mito stress test (OCR)
Method: FIG. 8B: the H9c2 cells were treated with the compounds for 6 h, then a mitochondrial respiration stress test was carried out.
The XFe96 extracellular flow analyzer (Seahorse Biosciences, North Billerica, MA, USA) was used to measure the bioenergetic function of H9C2 cardiomyocytes. The H9C2 cells were seeded at 20 000 cells per well in XF96 cell culture microplates; all the pretreatments were carried out with serum-free cell culture medium. The Agilent Seahorse XF glycolysis stress test was performed to measure glycolytic function in the H9C2 cells; the extracellular acidification rate (ECAR) was measured sequentially by 3 injections, 10 mM glucose, 2 μM oligomycin and 50 mM 2-deoxy-D-glucose (2-DG). The Agilent Seahorse XF Cell Mito stress test measured key parameters of mitochondrial function by directly measuring the oxygen consumption rate (OCR) of the H9C2 cells. The test used the built-in injection ports on XF sensor cartridges to add respiration modulators into the cell well during the test in order to reveal key parameters of mitochondrial function. Oligomycin at 2 μM was injected first after the baseline measurements. Then 1 μM of […] (FCCP) was injected. The third injection corresponds to 0.5 μM of antimycin A, to stop mitochondrial respiration. The oxidation of the exogenous fatty acids was measured simultaneously using the XF palmitate-BSA FAO substrate kit with the mitochondrial stress test on XF cells. The substrate-limited medium is DMEM with 0.5 mM glucose, 1 mM GlutaMAX, 0.5 mM carnitine and 1% fetal calf serum. Carnitine was added freshly on the day of the change of medium. The FAO test medium contains 111 mM NaCl, 4.7 mM KCl, 1.25 mM CaCl2, 2 mM MgSO4, 1.2 mM NaH2PO4, supplemented with 2.5 mM glucose, 0.5 mM carnitine and 5 mM HEPES on the day of the test, adjusted to pH 7.4 at 37° C. The H9C2 cells were seeded at 20 000 cells per well in XF96 cell culture microplates. […]
Next, the energy metabolism was analyzed in real time using the Seahorse technology in H9C2 cells.

MFN2 = experiment: Western blot of MFN2 in RNVCs
Method: FIG. 6C: MFN1 and MFN2 protein levels in RNVCs analyzed by western blotting.
as §2
Due to the importance of mitochondria and reactive oxygen species (ROS) levels in the fate of cardiomyocyte cells, the hypothesis that the compounds could impact the mitochondrial network was explored. […] Thus, the mitochondrial network and the individual mitochondria were then analyzed using the IMARIS software.

BCL-XL = experiment: Western blot of BCL-XL expression in RNVCs; conditions: 6 h treatment
Method: as §1, §2

O=C1NC(c2ccccc2)=N/C1=C\c1cc2ccccc2c2ccccc12 [SG6163F]
expression of pro-apoptotic BAX protein (BAX): significantly decreased | mitochondrial number, size and morphology by transmission electron microscopy (H9C2 cells [1]): did not affect the morphology of the mitochondria | mitochondrial number and size by transmission electron microscopy (H9C2 cells [1]; 10 μM): increase in the number of mitochondria and a decrease in their size | OXPHOS (H9C2 cells [2]; independently of the substrates): boost OXPHOS

C[C@]12CC[C@H](O)C[C@H]1CC[C@@H]1[C@@H]2CC[C@]2(C)[C@@H](C3=CC(=O)OC3)CC[C@]12O [digitoxigenin]
expression of fusion protein MNF2 (MFN2): decreased | ATP production by oxidative phosphorylation (OXPHOS) (H9C2 cells [2]; glucose and pyruvate as substrates, 6 h): improved ATP production by oxidative phosphorylation

C[C@H]1O[C@@H](O[C@H]2[C@@H](O)C[C@H](O[C@H]3[C@@H](O)CC(O[C@H]4CC[C@@]5(C)[C@H](CC[C@@H]6[C@@H]5C[C@@H](O)[C@]5(C)[C@@H](C7=CC(=O)OC7)CC[C@]65O)C4)O[C@@H]3C)O[C@@H]2C)C[C@H](O)[C@@H]1O (stereo partly shown) [digoxin]
expression of BCL-XL (BCL-XL): caused a decrease | expression of pro-apoptotic BAX protein (BAX): significantly decreased | expression of fusion protein MNF2 (MFN2): decreased | mitochondrial number, size and morphology by transmission electron microscopy (H9C2 cells [1]): increase in the number of mitochondria and a decrease in their size
